Experiment: xn = mol fraction of the nth substance listed
Settings: Liquid, Vibrating tube method

C=C(C)C(=O)OCCN(C)C [2-(dimethylamino)ethyl methylpropenoate] + CCCCO
mass density [kg/m3]
Settings	100 kPa	5000 kPa	10000 kPa	15000 kPa	20000 kPa	25000 kPa	30000 kPa	35000 kPa
293.15 K, x1 = 0.0301	817.21	820.9	824.39	827.71	830.88	833.94	836.92	839.85
293.15 K, x1 = 0.06	824.09	827.83	831.32	834.6	837.73	840.76	843.75	846.74
293.15 K, x1 = 0.1005	833.13	836.85	840.32	843.61	846.74	849.77	852.74	855.68
293.15 K, x1 = 0.1995	852.44	856.11	859.55	862.82	865.96	869	872	875.01
293.15 K, x1 = 0.2993	868.71	872.37	875.83	879.12	882.28	885.36	888.38	891.38
293.15 K, x1 = 0.4005	882.69	886.4	889.87	893.17	896.32	899.39	902.42	905.46
293.15 K, x1 = 0.4521	889.04	892.7	896.14	899.43	902.58	905.66	908.71	911.75
293.15 K, x1 = 0.499	894.3	897.94	901.38	904.66	907.82	910.91	913.96	917.02
293.15 K, x1 = 0.5494	899.59	903.22	906.66	909.96	913.14	916.24	919.29	922.33
293.15 K, x1 = 0.5994	904.39	908.07	911.52	914.8	917.94	921.02	924.09	927.2
293.15 K, x1 = 0.7005	913.06	916.73	920.19	923.49	926.66	929.77	932.85	935.95
293.15 K, x1 = 0.7989	920.53	924.22	927.7	931.01	934.2	937.32	940.42	943.55
293.15 K, x1 = 0.8992	927.17	930.88	934.38	937.71	940.93	944.08	947.2	950.36
293.15 K, x1 = 0.9293	928.88	932.61	936.14	939.5	942.75	945.91	949.02	952.13
293.15 K, x1 = 0.9592	930.67	934.41	937.96	941.35	944.61	947.78	950.89	953.97
303.15 K, x1 = 0.0302	809.38	813.38	817.11	820.61	823.91	827.06	830.08	833.02
303.15 K, x1 = 0.0602	816.25	820.35	824.12	827.61	830.9	834.03	837.07	840.08
303.15 K, x1 = 0.1007	825	829.05	832.79	836.28	839.57	842.73	845.81	848.85
303.15 K, x1 = 0.2007	844.03	848.08	851.83	855.35	858.69	861.89	865.03	868.15
303.15 K, x1 = 0.3007	860.04	864.03	867.77	871.3	874.67	877.92	881.1	884.26
303.15 K, x1 = 0.4013	873.63	877.52	881.22	884.76	888.16	891.46	894.68	897.86
303.15 K, x1 = 0.4512	879.59	883.43	887.11	890.65	894.08	897.42	900.69	903.91
303.15 K, x1 = 0.5007	885.03	888.88	892.55	896.09	899.51	902.86	906.16	909.45
303.15 K, x1 = 0.5502	890.11	894.02	897.73	901.29	904.73	908.09	911.42	914.74
303.15 K, x1 = 0.6045	895.25	899.16	902.88	906.44	909.9	913.27	916.62	919.96
303.15 K, x1 = 0.7005	903.5	907.36	911.08	914.68	918.19	921.62	925.01	928.36
303.15 K, x1 = 0.8026	911.12	914.97	918.68	922.29	925.8	929.26	932.68	936.08
303.15 K, x1 = 0.9026	917.53	921.4	925.14	928.77	932.32	935.81	939.25	942.69
303.15 K, x1 = 0.9303	919.17	923.07	926.83	930.48	934.04	937.53	940.98	944.42
303.15 K, x1 = 0.9616	921.02	924.91	928.67	932.32	935.89	939.4	942.88	946.34
313.15 K, x1 = 0.0302	801.72	805.93	809.83	813.46	816.91	820.24	823.51	826.8
313.15 K, x1 = 0.0603	808.58	812.75	816.62	820.25	823.69	827.01	830.28	833.54
313.15 K, x1 = 0.1019	817.15	821.38	825.29	828.95	832.41	835.74	839	842.24
313.15 K, x1 = 0.2001	835.66	839.79	843.65	847.3	850.79	854.16	857.46	860.72
313.15 K, x1 = 0.301	851.41	855.57	859.51	863.24	866.8	870.21	873.49	876.67
313.15 K, x1 = 0.3999	864.54	868.7	872.64	876.4	880	883.45	886.78	890.02
313.15 K, x1 = 0.4519	870.67	874.82	878.78	882.54	886.15	889.61	892.94	896.17
313.15 K, x1 = 0.5002	875.94	880.09	884.04	887.81	891.43	894.9	898.25	901.51
313.15 K, x1 = 0.5505	881.12	885.27	889.22	893.01	896.64	900.13	903.49	906.74
313.15 K, x1 = 0.6004	885.84	890.02	894	897.79	901.42	904.91	908.27	911.52
313.15 K, x1 = 0.701	894.49	898.55	902.51	906.34	910.04	913.62	917.04	920.32
313.15 K, x1 = 0.8004	901.91	905.99	909.92	913.71	917.39	920.98	924.48	927.93
313.15 K, x1 = 0.9	908.36	912.45	916.43	920.31	924.08	927.72	931.24	934.63
313.15 K, x1 = 0.9322	910.31	914.45	918.45	922.31	926.03	929.63	933.11	936.46
313.15 K, x1 = 0.9608	911.98	916.12	920.11	923.96	927.68	931.27	934.75	938.13
